Drawing on US9045423B2, “Prophylactic and/or therapeutic agent for anemia comprising tetrahydroquinoline compound as active ingredient” (KOWA COMPANY, LTD., priority 2009, dated 2015), this text covers activity for 24 compounds.

Assay [1] has as its system K562 cells, a human proerythroblast cell line. In words: Hemoglobin production in K562 cells (fluorescence of the porphyrin ring). The format is cell-based. The following applies: Homo sapiens, K562, 144 h; 6 μM test compound, 3 + 3 days incubation; non-stimulated state without compound = 100; read-out: amount of hemoglobin, % of control (6 μM). The method, then: K562 cells (obtained from ATCC), which is a human proerythroblast cell line, were inoculated at a concentration of 1×10^5 cells/1 mL in each well of a 24-well plate, using complete medium (RPMI-1640 medium containing 10% bovine fetal serum), and 1 μL of a test compound at a 1000-fold concentration was added to each well. Subsequently, the cells were incubated for 3 days in a CO2 incubator (37° C., 5% CO2). The medium was exchanged, and the cells were further incubated for 3 days. The cells were collected and counted. Subsequently, the amount of hemoglobin produced in the cells was determined by adjusting the number of cells to 3×10^5 cells, and measuring the fluorescence of the porphyrin ring. That is, the cells collected by centrifugation were suspended in 500 μL of 2 M oxalic acid, and were heated to boil for 30 minutes. The cells were cooled, and then the fluorescence intensity was measured by using a fluorescence microplate reader (Spectra MAX GeminiEM; Molecular Devices Corp.) ([…]). The amount of hemoglobin in a non-stimulated state where no compound was added was designated as 100-, and the amount of hemoglobin (% of control) produced as induced by each of the compounds was determined.

In assay [2] the test system is HepG2 cells derived from human liver cancer. In words: EPO production in HepG2 cells (EPO ELISA of culture supernatant). Type of assay: cell-based. The note with it: Homo sapiens; for activity at 3 µM: HepG2, 3 μM test compound, 48 hrs, 4% oxygen, non-stimulated state without compound = 100%, read-out: amount of EPO production, % of control (3 μM); for activity at 10 µM: HepG2, 48 h, final concentration 10 μM, non-stimulated state = 100%, read-out: enhancement of EPO production. The method, then: HepG2 cells derived from human liver cancer were inoculated in an amount of 5×10^4 cells per well on a 48-well plate, using minimum essential medium (MEM, Sigma-Aldrich Company) containing 10% bovine fetal serum. On the next day, the medium was exchanged with Dulbecco's modified eagle medium (DMEM (Sigma-Aldrich Company)) containing 10% bovine fetal serum without Phenol Red. Then, a test compound dissolved in DMSO was added thereto to obtain a final concentration of 3 μM or 10 μM, and the amount of medium was adjusted to 400 μL per well. The cells were incubated for 48 hrs in a CO2 incubator in which the oxygen concentration was adjusted to 4%, and then the culture supernatant was collected. The EPO concentration in the culture supernatant was immediately measured using an EPO ELISA kit (Roche Diagnostics GmbH). The method was carried out according to the operation manual.
The amount of EPO production in a non-stimulated state where no compounds were added, was designated as 100%, and the amount of EPO production (% of control) induced by each of the compounds was determined.
Background: ELISA stands for enzyme-linked immunosorbent assay.

Each structure is given as a SMILES string.

In the case of `CC(=O)N1c2ccc(C(=O)NN)cc2C(Nc2ccc(N3CCOCC3)cc2)CC1C` (stereo not drawn) [Compound 133, 1-Acetyl-4-[(4-morpholinophenyl)-amino]-2-methyl-1,2,3,4-tetrahydroquinoline-6-carbohydrazide], the activity at 6 µM in assay [1] was 136%. Also, in assay [2], the activity at 3 µM was 113%.

Consider `CC(=O)N1c2ccc(-c3n[nH]c(=O)o3)cc2C(Nc2ccc(N3CCOCC3)cc2)CC1C` (stereo not drawn) [Compound 134, 1-Acetyl-4-[(4-morpholinophenyl)-amino]-2-methyl-6-[1,3,4-oxadiazol-2(3H)-on-5-yl]-1,2,3,4-tetrahydroquinoline], for which the activity at 6 µM in assay [1] turned out to be 298%. The activity at 3 µM in assay [2] was found to be 157%.

Consider `CONC(=O)c1ccc2c(c1)C(Nc1ccc(N3CCOCC3)cc1)CC(C)N2C(C)=O` (stereo not drawn) [Compound 135, 1-Acetyl-4-[(4-morpholinophenyl)-amino]-N-methoxy-2-methyl-1,2,3,4-tetrahydroquinoline-6-carboxamide], for which the activity at 6 µM in assay [1] is 178%. In addition, the activity at 3 µM in assay [2] was 124%.

Take `CC(=O)N1c2ccccc2C(Nc2ccc3ocnc3c2)CC1C` (stereo not drawn) [Compound 136, 1-Acetyl-4-[(benzoxazol-5-yl)-amino]-2-methyl-1,2,3,4-tetrahydroquinoline]: the activity at 6 µM in assay [1] was 136%. Also, the activity at 3 µM in assay [2] stood at 141%.

With `CC(=O)N1c2ccc(F)cc2C(Nc2ccc(C(=O)O)cc2)CC1C` (stereo not drawn) [Compound 137, 1-Acetyl-6-fluoro-4-[(4-carboxy-phenyl)amino]-2-methyl-1,2,3,4-tetrahydroquinoline], the activity at 6 µM in assay [1] amounted to 190%. Further, the activity at 3 µM in assay [2] worked out at 110%.

Consider `CNC(=O)c1ccc2c(c1)C(Oc1ccc(N3CCOCC3)cc1)CC(C)N2C(C)=O` (stereo not drawn) [Compound 140, 1-Acetyl-N,2-dimethyl-4-(4-morpholinophenoxy)-1,2,3,4-tetrahydroquinoline-6-carboxamide], for which the activity at 6 µM in assay [1] came to 231%. In addition, the activity at 3 µM in assay [2] stood at 124%.

Regarding `CC(=O)N1c2ccc(C(N)=O)cc2C(Oc2ccc(Cl)cc2)CC1C` (stereo not drawn) [Compound 142, 1-Acetyl-4-(4-chlorophenoxy)-2-methyl-1,2,3,4-tetrahydro-quinoline-6-carboxamide], in assay [1], the activity at 6 µM turned out to be 478%. Also, the activity at 3 µM in assay [2] was 129%.

For `CC(=O)N1c2ccccc2C(Oc2ccc(NS(C)(=O)=O)cc2)CC1C` (stereo not drawn) [Compound 143, N-{4-[(1-acetyl-2-methyl-1,2,3,4-tetrahydroquinolin-4-yl)oxy]-phenyl}methanesulfonamide], the activity at 6 µM in assay [1] turned out to be 396%. Also, the activity at 3 µM in assay [2] is 130%.

For `CCOC(=O)c1ccc2c(c1)C(Nc1ccc(C3CCCCC3)cc1)CC(C)N2C(C)=O` (stereo not drawn) [Compound 144, Ethyl 1-Acetyl-4-[(4-cyclohexylphenyl)-amino]-2-methyl-1,2,3,4-tetrahydroquinoline-6-carboxylate], the activity at 6 µM in assay [1] is 338%. The activity at 3 µM in assay [2] was determined as 180%.

`CC(=O)N1c2ccc(C(=O)O)cc2C(Nc2ccc(C3CCCCC3)cc2)CC1C` (stereo not drawn) [Compound 145, 1-Acetyl-4-[(4-cyclohexylphenyl)-amino]-2-methyl-1,2,3,4-tetrahydroquinoline-6-carboxylic acid]: in assay [1], the activity at 6 µM stood at 414%. Moreover, the activity at 10 µM in assay [2] was 157%.

Turning to `CNC(=O)c1ccc2c(c1)C(Nc1ccc(C3CCCCC3)cc1)CC(C)N2C(C)=O` (stereo not drawn) [Compound 146, 1-Acetyl-4-[(4-cyclohexylphenyl)-amino]-N,2-dimethyl-1,2,3,4-tetrahydroquinoline-6-carboxamide], the activity at 6 µM in assay [1] was found to be 208%. In addition, the activity at 3 µM in assay [2] stood at 152%.

With `CC(=O)N1c2ccc(C(N)=O)cc2C(Nc2ccc(C3CCCCC3)cc2)CC1C` (stereo not drawn) [Compound 147, 1-Acetyl-4-[(4-cyclohexylphenyl)-amino]-2-methyl-1,2,3,4-tetrahydroquinoline-6-carboxamide], the activity at 6 µM in assay [1] is 160%. Further, the activity at 10 µM in assay [2] was determined as 130%.

On to `CC(=O)N1c2ccc(C(=O)NCCOCCOCCOCCC(=O)OC(C)(C)C)cc2C(Nc2ccc(N3CCOCC3)cc2)CC1C` (stereo not drawn) [Compound 149, Tert-butyl 12-{1-Acetyl-2-methyl-4-[(4-morpholinophenyl)-amino]-1,2,3,4-tetrahydroquinoline-6-carboxamido}-4,7,10-trioxadodecanoate], for which the activity at 6 µM in assay [1] turned out to be 367%. Moreover, the activity at 3 µM in assay [2] was 190%.

On to `COC(=O)CCCc1ccc(NC(=O)c2ccc3c(c2)C(Nc2ccc(N4CCOCC4)cc2)CC(C)N3C(C)=O)cc1` (stereo not drawn) [Compound 151, Methyl 4-(4-{1-Acetyl-2-methyl-4-[(4-morpholinophenyl)-amino]-1,2,3,4-tetrahydroquinoline-6-carboxamido}-phenyl)butanoate], for which, in assay [1], the activity at 6 µM was 341%. Besides, the activity at 3 µM in assay [2] was found to be 110%.

As to `CC(=O)N1c2ccc(N3CCOCC3)cc2C(Oc2ccc(Cl)cc2)CC1C` (stereo not drawn) [Compound 152, 1-Acetyl-4-(4-chloro-phenoxy)-2-methyl-6-morpholino-1,2,3,4-tetrahydroquinoline], the activity at 6 µM in assay [1] came out at 337%. Moreover, the activity at 3 µM in assay [2] turned out to be 186%.

With `CC(=O)N1c2ccc(C(=O)O)cc2C(Nc2ccc(C3CCOCC3)cc2)CC1C` (stereo not drawn) [Compound 154, 1-Acetyl-2-methyl-4-{[4-(tetrahydro-2H-pyran-4-yl)-phenyl]amino}-1,2,3,4-tetrahydroquinoline-6-carboxylic acid], the activity at 6 µM in assay [1] was 320%. In assay [2], the activity at 3 µM is 116%.

With `COC(=O)CCCCCNC(=O)c1ccc2c(c1)C(Nc1ccc(N3CCOCC3)cc1)CC(C)N2C(C)=O` (stereo not drawn) [Compound 157, Methyl 6-{1-Acetyl-2-methyl-4-[(4-morpholinophenyl)-amino]-1,2,3,4-tetrahydro-quinoline-6-carboxamido}-hexanoate], the activity at 6 µM in assay [1] is 396%. The activity at 10 µM in assay [2] is 237%.

For `COC(=O)CCCCCNC(=O)c1ccc2c(c1)C(Nc1ccc(Cl)cc1)CC(C)N2C(C)=O` (stereo not drawn) [Compound 158, Methyl 6-{1-acetyl-4-[(4-chloro-phenyl)amino]-2-methyl-1,2,3,4-tetrahydroquin-oline-6-carboxamido}-hexanoate], the activity at 6 µM in assay [1] worked out at 411%. Moreover, the activity at 10 µM in assay [2] turned out to be 248%.

As to `CC(=O)N1c2ccc(N3CCN(S(C)(=O)=O)CC3)cc2C(Nc2ccc(N3CCOCC3)cc2)CC1C` (stereo not drawn) [Compound 160, 1-Acetyl-2-methyl-6-[4-(methylsulfonyl)piperazin-1-yl]-4-[(4-morpholino-phenyl)amino]-1,2,3,4-tetrahydroquinoline], in assay [1], the activity at 6 µM stood at 259%. In assay [2], the activity at 3 µM amounted to 190%.

For `CC(=O)N1c2ccc(N3CCOCC3)cc2C(Nc2ccc(N3CCOCC3)cc2)CC1C` (stereo not drawn) [Compound 161, 1-Acetyl-2-methyl-6-morpholino-4-[(4-morpholinophenyl)-amino]-1,2,3,4-tetrahydroquinoline], the activity at 6 µM in assay [1] is 308%. Further, the activity at 3 µM in assay [2] is 351%.

On to `CCOC(=O)c1ccc2c(c1)C(Nc1ccc(-c3csc(C)n3)cc1)CC(C)N2C(C)=O` (stereo not drawn) [Compound 162, Ethyl 1-Acetyl-2-methyl-4-{[4-(2-methylthiazol-4-yl)-phenyl]amino}-1,2,3,4-tetrahydroquinoline-6-carboxylate], for which the activity at 6 µM in assay [1] came out at 316%. The activity at 3 µM in assay [2] worked out at 284%.

With `CC(=O)N1c2ccc(C(=O)O)cc2C(Nc2ccc(-c3csc(C)n3)cc2)CC1C` (stereo not drawn) [Compound 163, 1-Acetyl-2-methyl-4-{[4-(2-methylthiazol-4-yl)-phenyl]amino}-1,2,3,4-tetrahydroquinoline-6-carboxylic acid], the activity at 6 µM in assay [1] stood at 172%. Besides, the activity at 3 µM in assay [2] was 128%.

Consider `CC(=O)N1c2ccc(C(N)=O)cc2C(Nc2ccc(-c3csc(C)n3)cc2)CC1C` (stereo not drawn) [Compound 164, 1-Acetyl-2-methyl-4-{[4-(2-methylthiazol-4-yl)-phenyl]amino}-1,2,3,4-tetrahydroquinoline-6-carboxamide], for which the activity at 6 µM in assay [1] stood at 367%. Moreover, the activity at 3 µM in assay [2] was 336%.

As for `CNC(=O)c1ccc2c(c1)C(Nc1ccc(-c3csc(C)n3)cc1)CC(C)N2C(C)=O` (stereo not drawn) [Compound 165, 1-Acetyl-N,2-dimethyl-4-{[4-(2-methylthiazol-4-yl)phenyl]amino}-1,2,3,4-tetrahydroquinoline-6-carboxamide], in assay [1], the activity at 6 µM came to 304%. Also, the activity at 10 µM in assay [2] was 159%.
